pIC50, pKi: −log10 of the molar value. Structures can show the parent of a compound that is named as a salt.
Key:
[1] = target: T1, cloned human 5HT1A receptors (Homo sapiens, UniProt P08908); experiment: 35S-GTPγS binding assay, membranes containing cloned human 5HT1A receptors; type: biochemical
T1 construct: expressed in transfected cells
T1 sequence (P08908 1-422): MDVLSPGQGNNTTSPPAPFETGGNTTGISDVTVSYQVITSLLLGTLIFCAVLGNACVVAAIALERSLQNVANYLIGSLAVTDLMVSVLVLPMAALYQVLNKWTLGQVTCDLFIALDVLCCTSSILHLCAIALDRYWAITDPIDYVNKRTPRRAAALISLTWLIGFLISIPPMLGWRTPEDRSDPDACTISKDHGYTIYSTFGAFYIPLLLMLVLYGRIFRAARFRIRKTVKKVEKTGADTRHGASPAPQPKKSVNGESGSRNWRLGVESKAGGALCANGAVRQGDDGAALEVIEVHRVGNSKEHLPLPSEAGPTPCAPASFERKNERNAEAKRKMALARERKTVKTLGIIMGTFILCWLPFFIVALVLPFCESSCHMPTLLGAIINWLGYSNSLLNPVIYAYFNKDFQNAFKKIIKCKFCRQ
Method: Antagonist activity at 5-HT1A receptors was established by using a ^35S-GTPγS binding assay similar to that used by Lazareno and Birdsall (Br. J. Pharmacol. 109: 1120, 1993), in which the test compound's ability to affect the binding of ^35S-GTPγS to membranes containing cloned human 5HT1A receptors was determined. Agonists produce an increase in binding whereas antagonists produce no increase but rather reverse the effects of the standard agonist 8-OHDPAT. The test compound's maximum inhibitory effect is represented as the Imax, while its potency is defined by the IC50.

human 5-HT1A receptors = target: T2, human 5-HT1A receptors (Homo sapiens, UniProt P08908); experiment: Displacement of [3H] 8-OHDPAT from 5-HT1A receptor, CHO cells stably transfected with human 5-HT1A receptors; type: binding; conditions: CHO cells with human 5-HT1A receptors, read-out: 5-HT1A Receptor Affinity KI
T2 construct: expressed in transfected cells; host or cells: CHO cells
T2 sequence (P08908 1-422): T1 sequence (P08908 1-422)
Excerpt: High affinity for the serotonin 5-HT1A receptor was established by testing the claimed compound's ability to displace [^3H] 8-OHDPAT (dipropylaminotetralin) from the 5-HT1A serotonin receptor following a modification of the procedure of Hall et al., J. Neurochem. 44, 1685 (1985) which utilizes CHO cells stably transfected with human 5-HT1A receptors.

serotonin transporter = target: T3, serotonin transporter (Rattus norvegicus, UniProt P31652); experiment: Displacement of 3H-paroxetine from male rat frontal cortical membranes (serotonin transporter affinity); type: binding; conditions: read-out: 5-HT Transporter Affinity KI
T3 construct: displace ^3H-paroxetine from male rat frontal cortical membranes; from tissue; host or cells: male rat frontal cortex membranes
T3 sequence (P31652 whole entry): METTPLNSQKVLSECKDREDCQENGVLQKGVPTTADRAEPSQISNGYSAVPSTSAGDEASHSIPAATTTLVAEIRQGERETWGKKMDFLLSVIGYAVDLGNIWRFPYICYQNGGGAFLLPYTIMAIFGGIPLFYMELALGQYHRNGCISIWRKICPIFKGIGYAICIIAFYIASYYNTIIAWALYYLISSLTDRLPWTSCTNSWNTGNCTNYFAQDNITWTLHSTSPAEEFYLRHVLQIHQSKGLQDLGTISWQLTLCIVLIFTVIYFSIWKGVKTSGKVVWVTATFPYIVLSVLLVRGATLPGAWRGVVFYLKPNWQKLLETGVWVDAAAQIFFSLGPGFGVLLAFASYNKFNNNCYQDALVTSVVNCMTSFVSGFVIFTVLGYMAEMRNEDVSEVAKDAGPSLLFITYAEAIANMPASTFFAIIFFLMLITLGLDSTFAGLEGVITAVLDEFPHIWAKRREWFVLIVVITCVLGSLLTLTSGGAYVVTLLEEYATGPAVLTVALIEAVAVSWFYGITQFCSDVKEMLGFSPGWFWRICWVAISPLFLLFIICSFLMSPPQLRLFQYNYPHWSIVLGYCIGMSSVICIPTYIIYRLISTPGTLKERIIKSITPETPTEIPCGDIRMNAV

Cc1nc2ccc3c(c2o1)OC(CN(C)CCCc1c[nH]c2ccc(F)cc12)CO3 (stereo not drawn) (as salt: hydrochloride) [Example 24, N-[3-(5-Fluoro-1H-indol-3-yl)propyl]-N-methyl-N-(2-methyl-7,8-dihydro[1,4]dioxino[2,3-g][1,3]benzoxazol-8-ylmethyl)amine]
melting point: 136 to 139 °C

Cc1ccc2c3c(ccc2n1)OCC(CNCCCn1ccc2c(F)cccc21)O3 (stereo not drawn) (as salt: hydrochloride) [Example 46, [3-(4-Fluoro-indol-1-yl)-propyl]-(8-methyl-2,3-dihydro-[1,4]dioxino[2,3-f]quinolin-2-ylmethyl)-amine]
melting point: 203 to 206 °C

Cc1ccc2c3c(ccc2n1)OCC(CNCCCc1c[nH]c2ccc(C#N)cc12)O3 (stereo not drawn) (as salt: hydrochloride) [Example 29, 3-{3-[(8-Methyl-2,3-dihydro-[1,4]dioxino[2,3-f]quinolin-2-ylmethyl)-amino]-propyl}-1H-indole-5-carbonitrile]
melting point: 170 to 174 °C

Cc1ccc2c3c(ccc2n1)OCC(CNCCCCc1c[nH]c2ccccc12)O3 (stereo not drawn) (as salt: fumarate) [Example 9, N-[4-(1H-indol-3-yl)butyl]-N-(8-methyl-2,3-dihydro-[1,4]dioxino[2,3-f]quinolin-2-ylmethyl)amine]
melting point: 208 to 210 °C

Cc1ccc2c3c(ccc2n1)OCC(CNCCCCc1cn(C)c2ccc(F)cc12)O3 (stereo not drawn) (as salt: hydrochloride) [Example 35, [4-(5-Fluoro-1-methyl-1H-indol-3-yl)-butyl]-(8-methyl-2,3-dihydro-[1,4]dioxino[2,3-f]quinolin-2-ylmethyl)-amine]
melting point: 229 to 235 °C

COc1cccc2c(CCCNCC3COc4ccc5nc(C)ccc5c4O3)coc12 (stereo not drawn) (as salt: fumarate) [Example 19, N-[3-(7-Methoxy-1-benzofuran-3-yl)propyl]-N-(8-methyl-2,3-dihydro-[1,4]dioxino[2,3-f]quinolin-2-ylmethyl)amine]
melting point: 155 to 160 °C

Cc1ccc2c3c(ccc2n1)OCC(CN(C)CCCCc1c[nH]c2ccc(F)cc12)O3 (stereo not drawn) (as salt: hydrochloride) [Example 43, [4-(5-Fluoro-1H-indol-3-yl)-butyl]-methyl-(8-methyl-2,3-dihydro-[1,4]dioxino[2,3-f]quinolin-2-ylmethyl}-amine]
melting point: 274 to 275 °C

CCN(CCCCc1coc2ccccc12)C[C@H]1COc2ccc3nc(C)ccc3c2O1 (as salt: fumarate) [Example 52, N-[4-(1-Benzofuran-3-yl)butyl]-N-ethyl-N-{[(2S)-8-methyl-2,3-dihydro[1,4]dioxino[2,3-f]quinolin-2-yl]methyl}amine]
melting point: 87 to 92 °C

Cc1ccc2c3c(ccc2n1)OC[C@H](CNCCCc1c[nH]c2ccc(F)cc12)O3 (as salt: fumarate) [Example 3, N-[3-(5-Fluoro-1H-Indolyl-3-yl)propyl]-N-(8-methyl-2,3-dihydro-[1,4]dioxino[2,3-f]quinolin-2-ylmethyl)amine]
melting point: 207 to 209 °C

Cc1ccc2c3c(ccc2n1)OC[C@H](CN(C)CCCc1csc2ccccc12)O3 (as salt: fumarate) [Example 22, N-[3-(1-Benzothien-3-yl)propyl]-N-methyl-N-(8-mthyl-2,3-dihydro-[1,4]dioxino[2,3-f]quinolin-2-ylmthyl)amin]
melting point: 123 to 127 °C

Cc1ccc2c3c(ccc2n1)OC[C@H](CNCCc1coc2ccccc12)O3 (as salt: fumarate) [Example 17]
melting point: 210 to 214 °C

Cc1nc2ccc3c(c2o1)O[C@@H](CNCCCc1c[nH]c2ccc(F)cc12)CO3 (as salt: hydrochloride) [Example 23, N-[3-(5-Fluoro-1H-indol-3-yl)propyl]-N-(2-methyl-7,8-dihydro-[1,4]dioxino[2,3-g][1,3]benzoxazol-8-ylmethyl)amine]
melting point: 91 to 93 °C

CCN(CCCc1c[nH]c2ccc(F)cc12)CC1COc2ccc3nc(C)ccc3c2O1 (stereo not drawn) (as salt: hydrochloride) [Example 25, N-Ethyl-N-[3-(5-Fluoro-1H-indol-3-yl)propyl]-N-(8-methyl-2,3-dihydro-[1,4]dioxino[2,3-f]quinolin-2-ylmethyl)amine]
melting point: 158 to 175 °C

Cc1ccc2c3c(ccc2n1)OC[C@H](CNCCCc1csc2ccccc12)O3 (as salt: fumarate) [Example 20]
melting point: 185 to 186 °C

Cc1ccc2c3c(ccc2n1)OC[C@H](CNCCCCc1csc2ccc(Cl)cc12)O3 (as salt: fumarate) [Example 49]
melting point: 140 to 144 °C

Cc1ccc2c3c(ccc2n1)OCC(CN(C)CCCCc1cn(C)c2ccc(F)cc12)O3 (stereo not drawn) (as salt: hydrochloride) [Example 44, [4-(5-Fluoro-1-methyl-1H-indol-3-yl)-butyl]-methyl-(8-methyl-2,3-dihydro-[1,4]dioxino[2,3-f]quinolin-2-ylmethyl)-amine]
melting point: 275 to 276 °C

Cc1ccc2c3c(ccc2n1)OC[C@H](CNCCCc1csc2ccc(Cl)cc12)O3 (as salt: fumarate) [Example 50]
melting point: 193 to 196 °C

Cc1ccc2c3c(ccc2n1)OCC(CN(C)CCCc1c[nH]c2ccc(F)cc12)O3 (stereo not drawn) (as salt: fumarate) [Example 7, N-[3-(5-Fluoro-1H-indol-3-yl)propyl]-N-methyl-N-(8-methyl-2,3-dihydro-[1,4]dioxino[2,3-f]quinolin-2-ylmethyl)amine]
melting point: 104 to 120 °C

CCN(CCCc1c[nH]c2ccc(F)cc12)C[C@H]1COc2ccc3nc(C)oc3c2O1 (as salt: hydrochloride) [Example 36, Ethyl-[3-(5-fluoro-1H-indol-3-yl)-propyl]-(2-methyl-7,8-dihydro-[1,4]dioxino[2,3-g][1,3]benzoxazol-8-ylmethyl)-amine]
melting point: 115 °C (dec.)

Cc1ccc2c3c(ccc2n1)OCC(CNCCCn1ccc2ccc(F)cc21)O3 (stereo not drawn) (as salt: hydrochloride) [Example 33, [3-(6-Fluoro-indol-1-yl)-propyl]-(8-methyl-2,3-dihydro-[1,4]dioxino[2,3-f]quinolin-2-ylmethyl)amine]
melting point: 154 to 156 °C

Cc1ccc2c3c(ccc2n1)OCC(CN(C)CCCc1cn(C)c2ccc(F)cc12)O3 (stereo not drawn) (as salt: hydrochloride) [Example 42, [3-(5-Fluoro-1-methyl-1H-indol-3-yl)-propyl]-methyl-(8-methyl-2,3-dihydro-[1,4]dioxino[2,3-f]quinolin-2-ylmethyl)-amine]
melting point: 274 to 275 °C

Fc1ccc2[nH]cc(CCCNC[C@H]3COc4ccc5ncccc5c4O3)c2c1 (as salt: hydrochloride) [Example 14, N-(2,3-Dihydro-[1,4]dioxino[2,3-f]quinolin-2-ylmthyl)-N-[3-(5-fluoro-1H-indol-3-yl)propyl]amine]
melting point: 196 to 199 °C

Cc1ccc2c3c(ccc2n1)OCC(CNCCCc1c[nH]c2c(F)cccc12)O3 (stereo not drawn) (as salt: fumarate) [Example 8, N-[3-(7-Fluoro-1H-indol-3-yl)propyl]-N-(8-methyl-2,3-dihydro-[1,4]dioxino[2,3-f]quinolin-2-ylmethyl)amine]
melting point: 142 to 150 °C

Cc1ccc2c3c(ccc2n1)OCC(CN(C)CCCc1cn(C)c2c(F)cc(F)cc12)O3 (stereo not drawn) (as salt: hydrochloride) [Example 27, N-[3-(5,7-Difluoro-1-methyl-1H-indol-3-yl)propyl]-N-methyl-N-(8-methyl-2,3-dihydro-[1,4]dioxino[2,3-f]quinolin-2-ylmethyl)amine]
melting point: 190 to 204 °C

Cc1ccc2c3c(ccc2n1)OC[C@H](CNCCCc1coc2ccccc12)O3 (as salt: fumarate) [Example 18]
melting point: 165 to 170 °C

Cc1ccc2c3c(ccc2n1)OCC(CNCCCc1c[nH]c2c(F)cc(F)cc12)O3 (stereo not drawn) (as salt: fumarate) [Example 13, N-[3-(5,7-Difluoro-1H-indol-3-yl)propyl]-N-(8-methyl-2,3-dihydro-[1,4]dioxino[2,3-f]quinolin-2-ylmethyl)amine]
melting point: 188 to 195 °C

Cc1ccc2c3c(ccc2n1)OC[C@H](CNCCCc1cn(C)c2ccc(C#N)cc12)O3 [Example 37, 1-Methyl-3-{3-[(8-methyl-2,3-dihydro-[1,4]dioxino[2,3-f]quinolin-2-ylmethyl)-amino]-proyl}-1H-indole-5-carbonitrile]
pIC50 ([1]; antagonist potency, reversal of the effects of the standard agonist 8-OHDPAT, read-out: 5-HT1A Function IC50): 7.67 | Emax ([1]; maximum inhibitory effect, read-out: 5-HT1A Function (Imax)): 100% | pKi (human 5-HT1A receptors): 8.95 | pKi (serotonin transporter): 8.59

Reference: patent publication US6800637B2, “Antidepressant indolealkyl derivatives of heterocycle-fused benzodioxan methylamines” (Wyeth, priority 2002, dated 2004)
